# Tests used:
# [1] = Hydrophilic oxygen radical absorbance capacity (ORAC-H); conditions: water-soluble antioxidant capacity; expressed as mmol TE/g; — = No activity detected
# From the text: Thus the ORAC method has become a widely used method for assessing antioxidant capacity in biological samples and foods. However, because of its inability to measure both hydrophilic and lipophilic antioxidants, the method has its limitations. An ORAC method for lipophilic antioxidants was further developed and validated using fluorescein as the fluorescent probe (Prior et al. 2003 J. Agric. Food Chem. 51: 3273-3279). […] In the present work, the ORAC value is expressed as the sum of values of both the water-soluble and fat-soluble parts. […] Both hydrophilic and lipophilic oxygen radical absorbance capacity (ORAC) assays were carried out at Brunswick Laboratory (Wareham, Mass.) based on the modified ORACfl method reported by Ou et al. (2001 J. Agric. Food Chem. 49: 4619-4626, 2002 J. Agr. Food Chem. 50: 3122-3128). Trolox, a water-soluble vitamin E analog, was used as the calibration standard. The data are expressed as mmole of Trolox equivalents per gram (mmol TE/g). […] Hydroxyl radical ORAC (HOR-AC) is expressed as mmole caffeic acid equivalent per gram (mmol CAE/g). […] The peroxyl nitrite ORAC (NORAC) result is expressed as mmol TE/g. […] Radical-scavenging activity was measured by the change in absorbance at 517 nm with the DPPH result expressed as mmol TE/g. […] The FRAP result is expressed as mmol TE/g (Ou et al. 2002b).
# SOD antioxidant assay = conditions: FIG. 2 radar chart
# Procedure: [table] […] The SOAC scores are not included in this figure; ORAC values used are the sum of lipophilic and hydrophilic results. For each assay category, scaling was made logarithmic so that the plot on the chart resembles the associated rating. […] The larger the spatial area, the higher the overall antioxidative capacity. […] Both hydrophilic and lipophilic oxygen radical absorbance capacity (ORAC) assays were carried out at Brunswick Laboratory (Wareham, Mass.) based on the modified ORACfl method reported by Ou et al. (2001 J. Agric. Food Chem. 49: 4619-4626, 2002 J. Agr. Food Chem. 50: 3122-3128). Trolox, a water-soluble vitamin E analog, was used as the calibration standard. The data are expressed as mmole of Trolox equivalents per gram (mmol TE/g). The acceptable precision of the ORAC assay is a 15% relative standard deviation. […] Hydroxyl radical ORAC (HOR-AC) is expressed as mmole caffeic acid equivalent per gram (mmol CAE/g). […] The peroxyl nitrite ORAC (NORAC) result is expressed as mmol TE/g. Alpha-tocopherol (vitamin E) was used as the calibration standard, and the singlet oxygen absorbance capacity (SOAC) result is expressed as mmole a-tocopherol equivalent (mmol VtE) per gram (Aubry et al. 1989). […] Radical-scavenging activity was measured by the change in absorbance at 517 nm with the DPPH result expressed as mmol TE/g. […] The FRAP result is expressed as mmol TE/g (Ou et al. 2002b). […]
# [2] = Singlet oxygen absorbance capacity (SOAC)
# From the text: [table] Alpha-tocopherol (vitamin E) was used as the calibration standard, and the SOAC result is expressed as mmol VtE/g. The higher the SOAC score, the higher the singlet oxygen-quenching capacity. […] Singlet oxygen has been postulated to be a highly reactive and toxic intermediate against skin. It is known that the acne-causing bacterium P. acnes naturally produces high amounts of intracellular porphyrins, mostly coproporphyrin (Ashkenazi et al. 2003). Singlet oxygen can be generated on the skin surface from P. acnes porphyrins under sunlight and induce serious skin damage ([…] et al. 1996 Biochem. Biophys. Res. Commun. 223: 578-582). Various skin disorders progress through a singlet oxygen-dependent mechanism, including acne, atopic dermatitis, and skin aging. Both hydrophilic and lipophilic oxygen radical absorbance capacity (ORAC) assays were carried out at Brunswick Laboratory (Wareham, Mass.) based on the modified ORACfl method reported by Ou et al. (2001 J. Agric. Food Chem. 49: 4619-4626, 2002 J. Agr. Food Chem. 50: 3122-3128). Trolox, a water-soluble vitamin E analog, was used as the calibration standard. The data are expressed as mmole of Trolox equivalents per gram (mmol TE/g). The acceptable precision of the ORAC assay is a 15% relative standard deviation. Caffeic acid was used as the calibration standard. Hydroxyl radical ORAC (HOR-AC) is expressed as mmole caffeic acid equivalent per gram (mmol CAE/g). Trolox was used as the calibration standard. The peroxyl nitrite ORAC (NORAC) result is expressed as mmol TE/g. Alpha-tocopherol (vitamin E) was used as the calibration standard, and the singlet oxygen absorbance capacity (SOAC) result is expressed as mmole a-tocopherol equivalent (mmol VtE) per gram (Aubry et al. 1989). […] Radical-scavenging activity was measured by the change in absorbance at 517 nm with the DPPH result expressed as mmol TE/g. […] The FRAP result is expressed as mmol TE/g (Ou et al. 2002b). Superoxide dismutase (SOD) was used as a calibration standard; the SOD result is expressed as kilo unit SOD equivalent (kunitSODeq) per gram.
smiles,measurement,setting,value
"COc1cc(O)c(CC=C(C)C)c(O)c1C(=O)/C=C/c1ccc(O)cc1 [Xanthohumol (7), 3′-[3,3-dimethylallyl]-2′,4′,4-trihydroxy-6′-methoxychalcone]",ORAC-H (Trolox equivalent),[1],2.1 Trolox equivalent
same,"quenching activity against superoxide (SOD), rank among hop components",SOD antioxidant assay,highest quenching activity
same,"SOAC value, times higher than that of vitamin E or Polyphenon 60",[2],8-15 times
same,SOAC (Vitamin E equivalent),[2]; expressed as mmol VtE/g,14.1 Vitamin E equivalent
